Columns and labels:
TRPV1 receptor [1] = target: T1, TRPV1 receptor (Rattus norvegicus, UniProt O35433); assay: TRPV1 receptor modulation in the rat vas deferens, EFS-induced contraction (Assay 1); conditions: electrical field stimulation
Experimental: Wistar derived male rats (275±25 g) were suppressed by CO2 overexposure. The vas deferens was removed, placed in Krebs solution, pH 7.4 (composition in g/l: NaCl 6.89, KCl 0.35, CaCl2 0.277, KH2PO4 0.163, MgSO4.7H2O 0.296, NaHCO3 2.1 glucose 1.8) and excess fat and connective tissue removed. The portion of the vas deferens closest to the prostate was cut in half and each half was placed under 1 g tension in a 10 ml bath containing Krebs solution at 32° C. The tissue was contracted by electrical field stimulation (EFS; 60% of maximum stimulation, 0.015 Hz, 0.5 ms in duration) and contractile responses were measured.

guinea pig ileum = assay: Effect of test compound alone on guinea pig ileum contraction (Assay 3)
Experimental: Duncan Hartley derived male guinea pigs (325±25 g) were suppressed by CO2 overexposure, the abdominal cavity was exposed and ileal segments were removed. Small strips of ileum were suspended in organ baths containing Krebs solution (composition in g/l: NaCl 6.89, KCl 0.35, CaCl2 0.277, KH2PO4 0.163, MgSO4.7H2O 0.296, NaHCO3 2.1 glucose 1.8). The solution was kept at 32° C. and gassed with O2 (95%)-CO2 (5%) to maintain pH at 7.4. Mechanical activity was recorded by means of isotonic transducers. A resting tension of 1 g was applied to muscle strips before being equilibrated for 1 h, prior to test compound addition. Each preparation was washed twice at 15 min intervals during the equilibration.
Histamine (1.7 μM; approximately EC60-70) or 5-hydroxytryptamine (5-HT, 2.6 μM; approximately EC60-70) was applied for 5 min and the amplitude of the contraction recorded. The histamine or 5-HT was then washed out until the ileal tissue returned to baseline. Five min after returning to baseline test compound (3 and 30 μM) was applied and the amplitude of the contraction (if any) was recorded. In the continuous presence of test compound, histamine or 5-HT was re-applied and the inhibition of the response was recorded.

[2] = system: histamine-induced contractions in guinea pig ileum; assay: Inhibition of histamine-induced contractions in guinea pig ileum (Assay 3); conditions: histamine 1.7 μM
Summary of the method: (§1)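 Isolated male guinea pig ileum strips in Krebs at 32° C, pH 7.4, 1 g resting tension, isotonic recording. Contraction to test compound (3 and 30 μM) alone recorded, then inhibition of responses to histamine 1.7 μM or 5-HT 2.6 μM (~EC60-70, 5 min) measured in its continued presence.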

[3] = system: 5-HT-induced contractions in guinea pig ileum; assay: Inhibition of 5-HT-induced contractions in guinea pig ileum (Assay 3); conditions: 5-HT 2.6 μM
Summary of the method: as §1

[4] = system: α-smooth muscle actin (α-SMA) mRNA; assay: Anti-remodelling activity in human lung fibroblasts (HFL1): TGFβ-induced α-SMA mRNA (Assay 4); format: cell-based; conditions: HFL1 cells, TGFβ 10 ng/ml, 24 h
Summary of the method: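 Real-time RT-PCR of α-SMA mRNA, GAPDH as reference, measured after 24 h exposure of low-serum-primed HFL1 cells to 10 ng/ml TGFβ with test compounds (3 and 30 μM) in 10% FBS medium. Readout is inhibition of TGFβ-driven α-SMA mRNA overexpression.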

[5] = system: IL-1α-induced PGE2 release; assay: IL-1α-induced PGE2 release in human diploid lung fibroblasts (WI-38) (Assay 5); format: cell-based; conditions: WI-38 cells, IL-1α 1 nM, overnight
Summary of the method: (§2)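 WI-38 fibroblasts stimulated overnight at 37 °C with 1 nM IL-1α plus test compound at 3 and 30 μM in MEM with 10% FBS, pH 7.3; released PGE2 in supernatant quantified by radioimmunoassay as percent inhibition. Viability then checked by Alamar Blue, 4 h at 37 °C, fluorescence ex 530/em 590 nm.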

WI-38 cells = assay: Viability of WI-38 cells, Alamar Blue (Assay 5); format: cell-based, human
Summary of the method: as §2

5-lipoxygenase = target: T2, 5-lipoxygenase (Homo sapiens, UniProt P09917); assay: 5-lipoxygenase activity (LTB4) in human peripheral blood mononuclear leukocytes (Assay 6); format: cell-based; conditions: human PBMLs, A23187 30 μM
T2 construct: endogenous in cells; host or cells: human peripheral blood mononuclear leukocytes (PBMLs)
T2 sequence (P09917 1-674): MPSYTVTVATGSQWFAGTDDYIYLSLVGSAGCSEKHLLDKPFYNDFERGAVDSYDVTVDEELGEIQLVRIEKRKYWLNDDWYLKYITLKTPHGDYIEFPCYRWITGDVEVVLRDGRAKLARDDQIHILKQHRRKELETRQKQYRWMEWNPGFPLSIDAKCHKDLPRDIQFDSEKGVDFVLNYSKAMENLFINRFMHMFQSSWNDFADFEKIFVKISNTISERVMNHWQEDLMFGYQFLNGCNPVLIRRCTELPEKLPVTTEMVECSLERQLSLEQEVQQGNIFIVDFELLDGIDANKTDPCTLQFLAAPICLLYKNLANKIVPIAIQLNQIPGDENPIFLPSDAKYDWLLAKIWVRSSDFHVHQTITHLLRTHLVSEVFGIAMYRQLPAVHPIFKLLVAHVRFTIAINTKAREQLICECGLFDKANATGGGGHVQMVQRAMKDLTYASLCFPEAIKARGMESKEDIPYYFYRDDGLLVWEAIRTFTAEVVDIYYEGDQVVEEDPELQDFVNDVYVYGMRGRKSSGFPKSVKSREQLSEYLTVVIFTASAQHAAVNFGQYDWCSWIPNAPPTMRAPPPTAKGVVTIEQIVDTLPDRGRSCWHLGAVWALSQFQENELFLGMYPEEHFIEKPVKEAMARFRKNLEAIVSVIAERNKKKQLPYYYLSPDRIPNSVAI
Summary of the method: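 Human PBMLs (5×10^6 cells, Ficoll-isolated) stimulated with 30 μM A23187 plus compound at 3 or 30 μM or 0.1% DMSO in HBSS pH 7.4, 37° C., 15 min. After NaOH neutralisation and centrifugation, supernatant LTB4 measured by enzyme immunoassay.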

TRPV1 receptor [6] = target: T1, TRPV1 receptor; assay: TRPV1 modulation in DRG neurones: CGRP release in absence and presence of capsaicin (Assay 2); format: cell-based; design: The culture used for this experiment contained sensory neurones, Schwann cells and fibroblasts; endogenous in cells; host or cells: primary rat DRG sensory neurone culture (with Schwann cells and fibroblasts); conditions: for Effect of test compounds on capsaicin (1 μM)-induced CGRP release (%): −ve: inhibition, +ve: potentiation of capsaicin response; for CGRP release (% of capsaicin (1 μM) response): rat DRG sensory neurones, 20 min

T1 sequence (O35433 whole entry): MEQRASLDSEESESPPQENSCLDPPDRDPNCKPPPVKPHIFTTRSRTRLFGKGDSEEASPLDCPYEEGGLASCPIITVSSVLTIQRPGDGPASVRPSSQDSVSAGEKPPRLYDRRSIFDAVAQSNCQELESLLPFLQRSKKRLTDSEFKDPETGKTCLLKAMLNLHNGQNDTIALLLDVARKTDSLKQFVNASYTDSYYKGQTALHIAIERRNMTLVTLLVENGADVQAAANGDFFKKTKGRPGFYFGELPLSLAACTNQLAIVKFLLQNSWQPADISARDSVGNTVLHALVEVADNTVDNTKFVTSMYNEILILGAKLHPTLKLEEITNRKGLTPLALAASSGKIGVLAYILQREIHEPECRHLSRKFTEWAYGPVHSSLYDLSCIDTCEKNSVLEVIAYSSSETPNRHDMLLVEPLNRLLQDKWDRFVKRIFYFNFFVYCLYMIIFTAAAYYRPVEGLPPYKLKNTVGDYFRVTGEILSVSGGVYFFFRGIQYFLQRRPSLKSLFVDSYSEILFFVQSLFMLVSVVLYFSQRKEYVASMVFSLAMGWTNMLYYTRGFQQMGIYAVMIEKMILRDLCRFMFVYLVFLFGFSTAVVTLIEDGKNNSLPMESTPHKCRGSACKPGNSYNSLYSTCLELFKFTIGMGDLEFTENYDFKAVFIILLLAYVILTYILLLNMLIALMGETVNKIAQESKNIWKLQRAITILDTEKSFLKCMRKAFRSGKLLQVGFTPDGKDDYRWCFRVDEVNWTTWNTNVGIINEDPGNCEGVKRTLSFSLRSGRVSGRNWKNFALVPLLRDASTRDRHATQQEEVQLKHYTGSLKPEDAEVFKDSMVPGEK

COc1cc(CCC(=O)CC(=O)C(C)C)ccc1O [Compound 1]
Inhibition of EFS response relative to capsaicin (TRPV1 receptor [1]): 27%
Contraction of guinea pig ileum relative to 5-HT-induced contraction (guinea pig ileum; 3 μM): 0
Contraction of guinea pig ileum relative to histamine-induced contraction (guinea pig ileum; 3 μM): 0
Contraction of guinea pig ileum relative to 5-HT-induced contraction (guinea pig ileum; 30 μM): 0
Contraction of guinea pig ileum relative to histamine-induced contraction (guinea pig ileum; 30 μM): 0
Inhibition of histamine-induced contraction (%) ([2]; 3 μM): 0%
Inhibition of histamine-induced contraction (%) ([2]; 30 μM): 11%
Inhibition of 5-HT-induced contraction (%) ([3]; 3 μM): 0%
Inhibition of 5-HT-induced contraction (%) ([3]; 30 μM): 20%
Inhibition of α-SMA mRNA synthesis (%) ([4]; 3 μM): 12%
Inhibition of α-SMA mRNA synthesis (%) ([4]; 30 μM): 34%
Inhibition of IL-1α-induced PGE2 release (%) ([5]; 3 μM): 68%
Inhibition of IL-1α-induced PGE2 release (%) ([5]; 30 μM): 101%
Decrease in cell viability (%) (WI-38 cells; 3 μM): 3%
Decrease in cell viability (%) (WI-38 cells; 30 μM): −10%
Inhibition of 5-LO (%) (5-lipoxygenase; 3 μM): 26%
Inhibition of 5-LO (%) (5-lipoxygenase; 30 μM): 63%
Effect of test compounds on capsaicin (1 μM)-induced CGRP release (%) (TRPV1 receptor [6]; 3 μM with capsaicin 1 μM): −36%
Effect of test compounds on capsaicin (1 μM)-induced CGRP release (%) (TRPV1 receptor [6]; 30 μM with capsaicin 1 μM): −24%
CGRP release (% of capsaicin (1 μM) response) (TRPV1 receptor [6]; test compound alone 3 μM): 26%
CGRP release (% of capsaicin (1 μM) response) (TRPV1 receptor [6]; test compound alone 30 μM): 41%

COc1cc(CCC(=O)CC(=O)c2ccc(Cl)c(Cl)c2)ccc1O [Compound 23, 1-(3,4-Dihlorophenyl)-5-(4-hydroxy-3-methoxyphenyl)pentane-1,3-dione]
Contraction of guinea pig ileum relative to 5-HT-induced contraction (guinea pig ileum; 3 μM): 0
Contraction of guinea pig ileum relative to histamine-induced contraction (guinea pig ileum; 3 μM): 0
Contraction of guinea pig ileum relative to 5-HT-induced contraction (guinea pig ileum; 30 μM): 0
Contraction of guinea pig ileum relative to histamine-induced contraction (guinea pig ileum; 30 μM): 0
Inhibition of histamine-induced contraction (%) ([2]; 3 μM): 8%
Inhibition of histamine-induced contraction (%) ([2]; 30 μM): 37%
Inhibition of 5-HT-induced contraction (%) ([3]; 3 μM): 11%
Inhibition of 5-HT-induced contraction (%) ([3]; 30 μM): 25%
Inhibition of α-SMA mRNA synthesis (%) ([4]; 3 μM): 13%
Inhibition of α-SMA mRNA synthesis (%) ([4]; 30 μM): 79%
Inhibition of IL-1α-induced PGE2 release (%) ([5]; 3 μM): 84%
Inhibition of IL-1α-induced PGE2 release (%) ([5]; 30 μM): 100%
Decrease in cell viability (%) (WI-38 cells; 3 μM): 6%
Decrease in cell viability (%) (WI-38 cells; 30 μM): 16%
Inhibition of 5-LO (%) (5-lipoxygenase; 3 μM): 63%
Inhibition of 5-LO (%) (5-lipoxygenase; 30 μM): 98%
Effect of test compounds on capsaicin (1 μM)-induced CGRP release (%) (TRPV1 receptor [6]; 3 μM with capsaicin 1 μM): −2%
Effect of test compounds on capsaicin (1 μM)-induced CGRP release (%) (TRPV1 receptor [6]; 30 μM with capsaicin 1 μM): 47%
CGRP release (% of capsaicin (1 μM) response) (TRPV1 receptor [6]; test compound alone 3 μM): 84%
CGRP release (% of capsaicin (1 μM) response) (TRPV1 receptor [6]; test compound alone 30 μM): 242%

CCC(=O)CC(=O)CCc1ccc(O)c(OC)c1 [3-gingerdione, reference compound]
Contraction of guinea pig ileum relative to 5-HT-induced contraction (guinea pig ileum; 3 μM): 0
Contraction of guinea pig ileum relative to histamine-induced contraction (guinea pig ileum; 3 μM): 0
Contraction of guinea pig ileum relative to 5-HT-induced contraction (guinea pig ileum; 30 μM): 0
Contraction of guinea pig ileum relative to histamine-induced contraction (guinea pig ileum; 30 μM): 0
Inhibition of histamine-induced contraction (%) ([2]; 3 μM): 5%
Inhibition of histamine-induced contraction (%) ([2]; 30 μM): 14%
Inhibition of 5-HT-induced contraction (%) ([3]; 3 μM): 0%
Inhibition of 5-HT-induced contraction (%) ([3]; 30 μM): 5%
Inhibition of α-SMA mRNA synthesis (%) ([4]; 3 μM): 13%
Inhibition of α-SMA mRNA synthesis (%) ([4]; 30 μM): 24%
Inhibition of IL-1α-induced PGE2 release (%) ([5]; 3 μM): 61%
Inhibition of IL-1α-induced PGE2 release (%) ([5]; 30 μM): 99%
Decrease in cell viability (%) (WI-38 cells; 3 μM): 4%
Decrease in cell viability (%) (WI-38 cells; 30 μM): 5%
Inhibition of 5-LO (%) (5-lipoxygenase; 3 μM): −5%
Inhibition of 5-LO (%) (5-lipoxygenase; 30 μM): 73%
Effect of test compounds on capsaicin (1 μM)-induced CGRP release (%) (TRPV1 receptor [6]; 3 μM with capsaicin 1 μM): −37%
Effect of test compounds on capsaicin (1 μM)-induced CGRP release (%) (TRPV1 receptor [6]; 30 μM with capsaicin 1 μM): −43%
CGRP release (% of capsaicin (1 μM) response) (TRPV1 receptor [6]; test compound alone 3 μM): 17%
CGRP release (% of capsaicin (1 μM) response) (TRPV1 receptor [6]; test compound alone 30 μM): 18%

COc1cc(CCC(=O)CC(=O)c2ccc(Cl)cc2Cl)ccc1O [Compound 24, 1-(2,4-Dihlorophenyl)-5-(4-hydroxy-3-methoxyphenyl)pentane-1,3-dione]
Contraction of guinea pig ileum relative to 5-HT-induced contraction (guinea pig ileum; 3 μM): 0
Contraction of guinea pig ileum relative to histamine-induced contraction (guinea pig ileum; 3 μM): 0
Contraction of guinea pig ileum relative to 5-HT-induced contraction (guinea pig ileum; 30 μM): 0
Contraction of guinea pig ileum relative to histamine-induced contraction (guinea pig ileum; 30 μM): 0
Inhibition of histamine-induced contraction (%) ([2]; 3 μM): 12%
Inhibition of histamine-induced contraction (%) ([2]; 30 μM): 59%
Inhibition of 5-HT-induced contraction (%) ([3]; 3 μM): 5%
Inhibition of 5-HT-induced contraction (%) ([3]; 30 μM): 98%
Inhibition of α-SMA mRNA synthesis (%) ([4]; 3 μM): 8%
Inhibition of α-SMA mRNA synthesis (%) ([4]; 30 μM): 80%
Inhibition of IL-1α-induced PGE2 release (%) ([5]; 3 μM): 93%
Inhibition of IL-1α-induced PGE2 release (%) ([5]; 30 μM): 100%
Decrease in cell viability (%) (WI-38 cells; 3 μM): 7%
Decrease in cell viability (%) (WI-38 cells; 30 μM): 26%
Inhibition of 5-LO (%) (5-lipoxygenase; 3 μM): 45%
Inhibition of 5-LO (%) (5-lipoxygenase; 30 μM): 97%
Effect of test compounds on capsaicin (1 μM)-induced CGRP release (%) (TRPV1 receptor [6]; 3 μM with capsaicin 1 μM): −13%
Effect of test compounds on capsaicin (1 μM)-induced CGRP release (%) (TRPV1 receptor [6]; 30 μM with capsaicin 1 μM): 2%
CGRP release (% of capsaicin (1 μM) response) (TRPV1 receptor [6]; test compound alone 3 μM): 92%
CGRP release (% of capsaicin (1 μM) response) (TRPV1 receptor [6]; test compound alone 30 μM): 193%

From US7589123B2, “Chemical compounds” (Phytopharm PLC, priority 2006, dated 2009)
